For one assay, the system named is E. faecalis. As to the kind of experiment: Kill or inhibit growth/proliferation; morphology, biofilm and growth disruption (Tables 5, 6). Also: test concentration or dose not given here. The format is cell-based, Enterococcus faecalis. On the set-up: key: A: Peptide aggregates; B: Less hyphal formation; Clumps; Diffuse clumps and small polyps; F: Diffuse growth; H: Thin; I: Growth inhibition; Microcolony formation; Rippled; Small polyps; Thick; W: Halo formation on top, microlonies on bottom.

Another assay relates to MRSA. The description is as above. The format is cell-based, Methicillin-resistant Staphylococcus aureus. On the set-up: key: A: Peptide aggregates; B: Less hyphal formation; Clumps; Diffuse clumps and small polyps; F: Diffuse growth; H: Thin; I: Growth inhibition; Microcolony formation; Rippled; Small polyps; Thick; W: Halo formation on top, microlonies on bottom.
The next assay concerns S. epidermidis. Described as above. The format is cell-based, Staphylococcus epidermidis. Further details: key: A: Peptide aggregates; B: Less hyphal formation; Clumps; Diffuse clumps and small polyps; F: Diffuse growth; H: Thin; I: Growth inhibition; Microcolony formation; Rippled; Small polyps; Thick; W: Halo formation on top, microlonies on bottom.
A further assay has as its system S. pneumoniae. The description is as above. The format is cell-based, Streptococcus pneumoniae. Further details: key: A: Peptide aggregates; B: Less hyphal formation; Clumps; Diffuse clumps and small polyps; F: Diffuse growth; H: Thin; I: Growth inhibition; Microcolony formation; Rippled; Small polyps; Thick; W: Halo formation on top, microlonies on bottom. Also: test concentration or dose not given here.
For a further assay, the system named is E. coli. The description is as above. The format is cell-based, Escherichia coli. Further details: key: A: Peptide aggregates; B: Less hyphal formation; Clumps; Diffuse clumps and small polyps; F: Diffuse growth; H: Thin; I: Growth inhibition; Microcolony formation; Rippled; Small polyps; Thick; W: Halo formation on top, microlonies on bottom.
A further assay relates to microorganisms. In words: Peptides having multiple activities (targeting/binding, antimicrobial, growth or phenotype altering). From the text: In certain embodiments, peptides described herein can have multiple activities. Thus for example, a peptide can have both binding/targeting activity and antimicrobial activity. Such peptides can be used, e.g., in a chimeric construct, for any or all of these properties. Thus, for example, a peptide designated “B” in Table 8 can be used as a targeting peptide. If it is also designated G or M it can also be used for antimicrobial activity.

For assay [1], the system named is microorganisms (e.g., bacteria, yeasts, fungi). In words: Targeting peptide binding to target microorganisms (Table 3). The settings on record: microorganism(s) the targeting peptide binds, preferably 1x PBS.
Setting [2] is: peptide binding conducted in aqueous buffers varied by peptide solubility.

Entries after “also recorded” stand apart in the source; their conditions may differ.
For Organism, effect in this document: test concentration or dose not given here.

As to “PF-440: peptide having multiple activities (chain 1 MFIISPDLFNIAVILYILFFIHDILLLILS; chain 2 MFIISPDLFNIAVILYILFFIHDILLLILS; Peptide with targeting and/or antimicrobial activity)”, the “Organism, effect” value in the assay on E. faecalis was “E. faecalis (C)”; in the assay with MRSA, “MRSA (C)”; in the assay with S. epidermidis, “S. epidermidis (C)”; with S. pneumoniae, “S. pneumoniae (R)”; with E. coli, “E. coli (R)”. Moreover, the Activities entry in the assay with microorganisms is “G B”.

“PF-451: peptide having multiple activities (chain 1 MVNYIIGSYMLYREQNNNEALRKFDITLAM; chain 2 MVNYIIGSYMLYREQNNNEALRKFDITLAM; Peptide with targeting and/or antimicrobial activity)”: the “Organism, effect” value in the assay with E. faecalis is recorded as “E. faecalis (C)”; in the assay with MRSA it was “MRSA (C)”; in the assay on S. epidermidis it was “S. epidermidis (C)”; in the assay with S. pneumoniae, “S. pneumoniae (C)”; in the assay with E. coli, “E. coli (R)”. The Activities entry in the assay on microorganisms is given as “G B”.

As for “PF-381: peptide having multiple activities (chain 1 QGANPCQQVGFTVNDPDCRLAKTV; chain 2 QGANPCQQVGFTVNDPDCRLAKTV; Peptide with targeting and/or antimicrobial activity)”, the “Organism, effect” value with E. faecalis is listed as “E. faecalis (C)”; in the assay with MRSA, “MRSA (C)”; in the assay on S. epidermidis, “S. epidermidis (C)”; with E. coli it was “E. coli (R)”. The “Target(s)” value in assay [1] (binding in aqueous buffers depending on peptide solubility) was “E. coli; also recorded: P. aeruginosa; also recorded: C. jejuni”. Moreover, the Activities entry in the assay with microorganisms is given as “G B”.

On to “PF-374: peptide having multiple activities (chain 1 HLFFVKGMFILCQKNQINDE; chain 2 HLFFVKGMFILCQKNQINDE; Peptide with targeting and/or antimicrobial activity)”, for which the “Organism, effect” value with E. faecalis is reported as “E. faecalis (C)”; with MRSA, “MRSA (M)”; with S. epidermidis, “S. epidermidis (C)”; with E. coli it was “E. coli (C)”. In addition, the Activities result in the assay on microorganisms is “G B”.

As for “PF-410: peptide having multiple activities (FALELIALCRNLFIVYFP; Peptide with targeting and/or antimicrobial activity)”, the “Organism, effect” value in the assay on E. faecalis is on record as “E. faecalis (C)”; with MRSA it was “MRSA (M)”; with S. epidermidis, “S. epidermidis (C)”; in the assay on E. coli, “E. coli (S)”. Also, the Activities result in the assay with microorganisms is listed as “G B”.

With “PF-398: peptide having multiple activities (ILVVLAGILLVVLSYVGISKFKMNC; Peptide with targeting and/or antimicrobial activity)”, the “Organism, effect” value in the assay on E. faecalis is on record as “E. faecalis (C)”; in the assay on MRSA, “MRSA (C)”; in the assay with S. epidermidis, “S. epidermidis (C)”; with E. coli, “E. coli (C)”. Also, the Activities result in the assay with microorganisms is given as “G B”.

As for “PF-376: peptide having multiple activities (chain 1 MTVFEALMLAIAFATLIVKISNKNDKK; chain 2 MTVFEALMLAIAFATLIVKISNKNDKK; Peptide with targeting and/or antimicrobial activity)”, the “Organism, effect” value is “E. faecalis (C)” in the assay on E. faecalis, “MRSA (C)” with MRSA, “S. epidermidis (C)” in the assay on S. epidermidis and “E. coli (C)” with E. coli. The Activities entry in the assay on microorganisms is on record as “G B”.

Take “PF-379: peptide having multiple activities (chain 1 VFVVLFIIYLASKLLTKLFPIKK; chain 2 VFVVLFIIYLASKLLTKLFPIKK; Peptide with targeting and/or antimicrobial activity)”: the “Organism, effect” value in the assay with E. faecalis was “E. faecalis (C)”; in the assay on MRSA, “MRSA (C)”; with S. epidermidis, “S. epidermidis (C)”; in the assay with E. coli, “E. coli (C)”. Moreover, the Activities entry with microorganisms is “G B”.

Consider “PF-534 (KYFHLFYHNIIHYSKQHLSLKVDFKN; Peptide with targeting and/or antimicrobial activity)”, for which the “Organism, effect” value with E. faecalis is on record as “E. faecalis (C)”; in the assay with MRSA, “MRSA (C)”; in the assay on S. epidermidis it was “S. epidermidis (C)”; in the assay on S. pneumoniae, “S. pneumoniae (R)”; with E. coli, “E. coli (R)”.

With “PF-399: peptide having multiple activities (FPIISALLGAIICIAIYSFIVNRKA; Peptide with targeting and/or antimicrobial activity)”, the “Organism, effect” value is reported as “E. faecalis (C)” in the assay with E. faecalis, “MRSA (C)” in the assay with MRSA, “S. epidermidis (C)” with S. epidermidis and “E. coli (C)” in the assay on E. coli. Further, the Activities result in the assay on microorganisms was “G B”.

With KTPNDKIHKTIIIKHIIL [PF-533], the “Organism, effect” value was “E. faecalis (C)” in the assay with E. faecalis; “MRSA (H)” with MRSA; “S. epidermidis (H)” with S. epidermidis; “S. pneumoniae (C)” with S. pneumoniae; “E. coli (R)” with E. coli.

As to “PF-347: peptide having multiple activities (GIFTGVTVVVSLKHC; Peptide with targeting and/or antimicrobial activity)”, the “Organism, effect” value in the assay with E. faecalis is recorded as “E. faecalis (C)”; in the assay on MRSA, “MRSA (C)”; in the assay on S. epidermidis, “S. epidermidis (C)”; in the assay with E. coli, “E. coli (C)”. Moreover, the Activities result with microorganisms is on record as “G B”.

Take “PF-439: peptide having multiple activities (chain 1 RVLVLKKFHGIMDGNRNVAVFFVGQ; chain 2 RVLVLKKFHGIMDGNRNVAVFFVGQ; Peptide with targeting and/or antimicrobial activity)”: the “Organism, effect” value with E. faecalis is listed as “E. faecalis (C)”; with MRSA it was “MRSA (M)”; with S. epidermidis, “S. epidermidis (C)”; with S. pneumoniae, “S. pneumoniae (R)”; in the assay on E. coli it was “E. coli (R)”. For the same substance, the Activities result with microorganisms is “G B”.

In the case of “PF-460: peptide having multiple activities (chain 1 MEHVLPFQNTPPNIVIIYKDFTHLKSITFS; chain 2 MEHVLPFQNTPPNIVIIYKDFTHLKSITFS; Peptide with targeting and/or antimicrobial activity)”, the “Organism, effect” value was “E. faecalis (C)” in the assay with E. faecalis; “MRSA (C)” in the assay on MRSA; “S. epidermidis (C)” in the assay on S. epidermidis; “S. pneumoniae (R)” with S. pneumoniae; “E. coli (H)” in the assay with E. coli. In the assay on microorganisms, the Activities result is listed as “G B”.

As to “PF-396: peptide having multiple activities (LIYTILASLGVLTVLQAILGREPKAVKA; Peptide with targeting and/or antimicrobial activity)”, the “Organism, effect” value in the assay on E. faecalis was “E. faecalis (C)”; in the assay on MRSA it was “MRSA (C)”; in the assay with S. epidermidis, “S. epidermidis (S)”; in the assay with E. coli, “E. coli (C)”. In addition, the “Target(s)” value in assay [1] (setting [2]) is given as “S. epidermidis; also recorded: E. coli; also recorded: P. aeruginosa; also recorded: C. albicans; also recorded: E. faecalis; also recorded: C. jeikeium”. For the same substance, in the assay on microorganisms, the Activities entry was “G B”.

Consider “PF-401: peptide having multiple activities (YWLSRVTTGHSFAFEKPVPLSLTIK; Peptide with targeting and/or antimicrobial activity)”, for which the “Organism, effect” value is listed as “E. faecalis (C)” with E. faecalis, “MRSA (C)” in the assay with MRSA, “S. epidermidis (C)” with S. epidermidis and “E. coli (R)” in the assay with E. coli. The “Target(s)” value in assay [1] (setting [2]) is “S. epidermidis and E. coli and P. aeruginosa and MRSA and E. faecalis and C. jejuni”. In the assay on microorganisms, the Activities result is given as “G B”.

The values are drawn from US20110039762A1, “TARGETED ANTIMICROBIAL MOIETIES” (C3 JIAN, INC., priority 2009, published 2011).
